Key:
[1] = system: BHT-101; assay: cells; format: functional, cell-based, Homo sapiens
Description: SANGER: Inhibition of human BHT-101 cell growth in a cell viability assay.

[2] = system: EB2; assay: cells; format: functional, cell-based, Homo sapiens;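 also: growth inhibition of EB2 cells, read out with a cell viability assay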
Description: SANGER: Inhibition of human EB2 cell growth in a cell viability assay.

[3] = system: L-540; assay: cells; format: functional, cell-based, Homo sapiens;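 also: growth inhibition of the human L-540 cell line, read out with a viability assay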
Description: SANGER: Inhibition of human L-540 cell growth in a cell viability assay.

[4] = system: OAW-28; assay: cells; format: functional, cell-based, Homo sapiens;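 also: growth inhibition of OAW-28 cells, read out with a cell viability assay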
Description: SANGER: Inhibition of human OAW-28 cell growth in a cell viability assay.

[5] = system: LB647-SCLC; assay: cells; format: functional, cell-based, Homo sapiens;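 also: cell growth inhibition, read out by a viability assay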
Description: SANGER: Inhibition of human LB647-SCLC cell growth in a cell viability assay.

[6] = system: KYSE-150 cell line; assay: cells; format: functional, cell-based, Homo sapiens;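 also: growth inhibition of human KYSE-150 cells, read out with a cell viability assay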
Description: SANGER: Inhibition of human KYSE-150 cell growth in a cell viability assay.

[7] = system: RCM-1; assay: cells; format: functional, cell-based, Homo sapiens;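 also: growth inhibition of the RCM-1 line, determined with a cell viability readout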
Description: SANGER: Inhibition of human RCM-1 cell growth in a cell viability assay.

[8] = system: Daudi; assay: cells; format: functional, cell-based, Homo sapiens;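 also: growth inhibition of Daudi cells, read out by a viability assay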
Description: SANGER: Inhibition of human Daudi cell growth in a cell viability assay.

[9] = system: REH; assay: cells; format: functional, cell-based, Homo sapiens;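 also: growth inhibition of REH cells determined with a cell viability read-out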
Description: SANGER: Inhibition of human REH cell growth in a cell viability assay.

[10] = system: NCI-H2170; assay: cells; format: functional, cell-based, Homo sapiens;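 also: cell viability assay measuring growth inhibition of human NCI-H2170 cancer cells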
Description: SANGER: Inhibition of human NCI-H2170 cell growth in a cell viability assay.

[11] = system: RERF-LC-MS; assay: cells; format: functional, cell-based, Homo sapiens;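 also: growth inhibition of human RERF-LC-MS cells, read out by a cell viability assay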
Description: SANGER: Inhibition of human RERF-LC-MS cell growth in a cell viability assay.

[12] = system: NALM-6; assay: cells; format: functional, cell-based, Homo sapiens;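 also: growth inhibition of NALM-6 cells, read out with a cell viability assay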
Description: SANGER: Inhibition of human NALM-6 cell growth in a cell viability assay.

[13] = system: NCI-H2452; assay: cells; format: functional, cell-based, Homo sapiens;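 also: growth inhibition of NCI-H2452 cells, read out with a cell viability assay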
Description: SANGER: Inhibition of human NCI-H2452 cell growth in a cell viability assay.

[14] = system: EHEB; assay: cells; format: functional, cell-based, Homo sapiens;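 also: growth inhibition of human EHEB cells, read out with a cell viability assay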
Description: SANGER: Inhibition of human EHEB cell growth in a cell viability assay.

[15] = system: HT1197; assay: cells; format: functional, cell-based, Homo sapiens, HT-1197
Description: SANGER: Inhibition of human HT-1197 cell growth in a cell viability assay.

[16] = system: Ca-Ski; assay: cells; format: functional, cell-based, Homo sapiens;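 also: cell viability assay measuring inhibition of Ca-Ski cell growth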
Description: SANGER: Inhibition of human Ca-Ski cell growth in a cell viability assay.

[17] = system: RPMI-6666; assay: cells; format: functional, cell-based, Homo sapiens
Description: SANGER: Inhibition of human RPMI-6666 cell growth in a cell viability assay.

[18] = system: NCI-H727; assay: cells; format: functional, cell-based, Homo sapiens;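 also: growth inhibition of human NCI-H727 cells, read out with a cell viability assay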
Description: SANGER: Inhibition of human NCI-H727 cell growth in a cell viability assay.

[19] = system: EFO-21; assay: cells; format: functional, cell-based, Homo sapiens;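 also: growth inhibition of EFO-21 cells measured with a viability assay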
Description: SANGER: Inhibition of human EFO-21 cell growth in a cell viability assay.

[20] = system: SW-620; assay: cells; format: functional, cell-based, Homo sapiens;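 also: growth inhibition of human SW-620 cells, measured by a cell viability assay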
Description: SANGER: Inhibition of human SW620 cell growth in a cell viability assay.

[21] = system: MKN-7; assay: cells; format: functional, cell-based, Homo sapiens;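 also: growth inhibition of MKN-7 cells, read out with a cell viability assay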
Description: SANGER: Inhibition of human MKN7 cell growth in a cell viability assay.

[22] = system: NCI-H1703; assay: cells; format: functional, cell-based, Homo sapiens;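 also: growth inhibition of NCI-H1703 cells, read out via a cell viability assay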
Description: SANGER: Inhibition of human NCI-H1703 cell growth in a cell viability assay.

[23] = system: HMV-2 cell line; assay: cells; format: functional, cell-based, Homo sapiens;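 also: growth inhibition of HMV-II cells, read out with a cell viability assay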
Description: SANGER: Inhibition of human HMV-II cell growth in a cell viability assay.

[24] = system: RD; assay: cells; format: functional, cell-based, Homo sapiens
Description: SANGER: Inhibition of human RD cell growth in a cell viability assay.

[25] = system: SCC-9; assay: cells; format: functional, cell-based, Homo sapiens;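 also: Read-out is a cell viability assay, with values giving inhibition of cell growth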
Description: SANGER: Inhibition of human SCC-9 cell growth in a cell viability assay.

[26] = system: SW13; assay: cells; format: functional, cell-based, Homo sapiens;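 also: IC50 is inhibition of SW13 cell growth, read out with a cell viability assay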
Description: SANGER: Inhibition of human SW13 cell growth in a cell viability assay.

[27] = system: SAOS-2; assay: cells; format: functional, cell-based, Homo sapiens;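 also: growth inhibition of human Saos-2 cells determined by a cell viability assay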
Description: SANGER: Inhibition of human Saos-2 cell growth in a cell viability assay.

[28] = system: HCC1954; assay: cells; format: functional, cell-based, Homo sapiens;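 also: growth inhibition of human HCC1954 cells, read out with a cell viability assay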
Description: SANGER: Inhibition of human HCC1954 cell growth in a cell viability assay.

[29] = system: IGR-1; assay: cells; format: functional, cell-based, Homo sapiens;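 also: growth inhibition of human IGR-1 cells, read out with a cell viability assay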
Description: SANGER: Inhibition of human IGR-1 cell growth in a cell viability assay.

[30] = system: Detroit 562; assay: cells; format: functional, cell-based, Homo sapiens;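 also: growth inhibition of human Detroit 562 cells, read out by a cell viability assay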
Description: SANGER: Inhibition of human Detroit562 cell growth in a cell viability assay.

[31] = system: SCC-4; assay: cells; format: functional, cell-based, Homo sapiens;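 also: growth inhibition of human SCC-4 cells, read out as cell viability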
Description: SANGER: Inhibition of human SCC-4 cell growth in a cell viability assay.

[32] = system: DMS-153; assay: cells; format: functional, cell-based, Homo sapiens
Description: SANGER: Inhibition of human DMS-153 cell growth in a cell viability assay.

[33] = system: BPH-1; assay: cells; format: functional, cell-based, Homo sapiens;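 also: cell viability assay measuring growth inhibition of human BPH-1 cells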
Description: SANGER: Inhibition of human BPH-1 cell growth in a cell viability assay.

[34] = system: KP-N-YN; assay: cells; format: functional, cell-based, Homo sapiens;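 also: growth inhibition of KP-N-YN cells, read out with a cell viability assay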
Description: SANGER: Inhibition of human KP-N-YN cell growth in a cell viability assay.

[35] = system: NCI-H2405; assay: cells; format: functional, cell-based, Homo sapiens;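 also: growth inhibition of the human cell line, read out with a cell viability assay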
Description: SANGER: Inhibition of human NCI-H2405 cell growth in a cell viability assay.

[36] = system: SW1417; assay: cells; format: functional, cell-based, Homo sapiens;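 also: growth inhibition of human SW1417 cells, read out with a cell viability assay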
Description: SANGER: Inhibition of human SW1417 cell growth in a cell viability assay.

[37] = system: MDA-MB-415; assay: cells; format: functional, cell-based, Homo sapiens
[38] = system: NY; assay: cells; format: functional, cell-based, Homo sapiens
Description: SANGER: Inhibition of human NY cell growth in a cell viability assay.

[39] = system: NCI-H460; assay: cells; format: functional, cell-based, Homo sapiens;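 also: cell viability assay scoring growth inhibition of human NCI-H460 cells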
Description: SANGER: Inhibition of human NCI-H460 cell growth in a cell viability assay.

[40] = system: C3A; assay: cells; format: functional, cell-based, Homo sapiens;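 also: growth inhibition of C3A human cells, quantified with a cell viability readout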
Description: SANGER: Inhibition of human C3A cell growth in a cell viability assay.

[41] = system: SU-DHL-1; assay: SANGER: Inhibition of human SU-DHL-1 cell growth in a cell viability assay.; format: functional, cell-based
[42] = system: ACHN; assay: cells; format: functional, cell-based, Homo sapiens;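 also: cell viability read-out used to gauge how strongly growth of human ACHN cells is suppressed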
Description: SANGER: Inhibition of human ACHN cell growth in a cell viability assay.

[43] = system: LC-1F; assay: cells; format: functional, cell-based, Homo sapiens;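 also: growth inhibition of human LC-1F cells, read out with a cell viability assay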
Description: SANGER: Inhibition of human LC-1F cell growth in a cell viability assay.

[44] = system: MEL-JUSO; assay: cells; format: functional, cell-based, Homo sapiens;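 also: growth inhibition of human MEL-JUSO cells, read out with a cell viability assay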
Description: SANGER: Inhibition of human MEL-JUSO cell growth in a cell viability assay.

[45] = system: CAKI-1; assay: cells; format: functional, cell-based, Homo sapiens;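 also: growth inhibition of CAKI-1 cells, measured by a cell viability assay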
Description: SANGER: Inhibition of human CAKI-1 cell growth in a cell viability assay.

[46] = system: HOP-92; assay: cells; format: functional, cell-based, Homo sapiens;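 also: cell viability readout, with IC50 reflecting inhibition of HOP-92 cell growth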
Description: SANGER: Inhibition of human HOP-92 cell growth in a cell viability assay.

[47] = system: NCI-H2030; assay: cells; format: functional, cell-based, Homo sapiens;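 also: growth inhibition of human NCI-H2030 cells, read out by a cell viability assay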
Description: SANGER: Inhibition of human NCI-H2030 cell growth in a cell viability assay.

Compound: BLEOMYCIN
- IC50 ([1]; bht-101): 7.34 µM
- IC50 ([2]; eb2): 0.691 µM
- IC50 ([3]; l-540): 23.5 µM
- IC50 ([4]; oaw-28): 9.21 µM
- IC50 ([5]; lb647-sclc): 3.14 µM
- IC50 ([6]; kyse-150): 0.00265 µM
- IC50 ([7]; rcm-1): 1.26 µM
- IC50 ([8]; daudi): 1.67 µM
- IC50 ([9]; reh): 0.0134 µM
- IC50 ([10]; nci-h2170): 0.162 µM
- IC50 ([11]; rerf-lc-ms): 48.7 µM
- IC50 ([12]; nalm-6): 0.42 µM
- IC50 ([13]; nci-h2452): 2140 µM
- IC50 ([14]; eheb): 1.61 µM
- IC50 ([15]; ht-1197): 2.74 µM
- IC50 ([16]; ca-ski): 0.798 µM
- IC50 ([17]; rpmi-6666): 0.445 µM
- IC50 ([18]; nci-h727): 10.3 µM
- IC50 ([19]; efo-21): 4.33 µM
- IC50 ([20]; sw-620): 3.56 µM
- IC50 ([21]; mkn-7): 66.5 µM
- IC50 ([22]; nci-h1703): 0.0161 µM
- IC50 ([23]; hmv-2): 0.0697 µM
- IC50 ([24]; rd): 106 µM
- IC50 ([25]; scc-9): 403 µM
- IC50 ([26]; sw13): 0.0816 µM
- IC50 ([27]; saos-2): 0.172 µM
- IC50 ([28]; hcc1954): 84.2 µM
- IC50 ([29]; igr-1): 2.35 µM
- IC50 ([30]; detroit 562): 11.9 µM
- IC50 ([31]; scc-4): 2.43 µM
- IC50 ([32]; dms-153): 165 µM
- IC50 ([33]; bph-1): 0.0591 µM
- IC50 ([34]; kp-n-yn): 26.3 µM
- IC50 ([35]; nci-h2405): 4.28 µM
- IC50 ([36]; sw1417): 249 µM
- IC50 ([37]; mda-mb-415): 67.3 µM
- IC50 ([38]; ny): 5.91 µM
- IC50 ([39]; nci-h460): 4.76 µM
- IC50 ([40]; c3a): 0.296 µM
- IC50 ([41]; su-dhl-1): 2.05 µM
- IC50 ([42]; achn): 0.375 µM
- IC50 ([43]; lc-1f): 49.4 µM
- IC50 ([44]; mel-juso): 0.109 µM
- IC50 ([45]; caki-1): 0.62 µM
- IC50 ([46]; hop-92): 9.26 µM
- IC50 ([47]; nci-h2030): 5.22 µM

Compound: O=C(O)c1ccc(-c2c[nH]c3ncc(-c4ccccc4)cc23)cc1C1CCCC1 [GSK-650394]
- IC50 ([1]; Homo sapiens, BHT-101): > 16 µM
- IC50 ([2]; Homo sapiens, EB2): > 16 µM
- IC50 ([3]; Homo sapiens, L-540): > 16 µM
- IC50 ([4]; Homo sapiens, OAW-28): > 16 µM
- IC50 ([5]; Homo sapiens, LB647-SCLC): 7.93 µM
- IC50 ([6]; Homo sapiens, KYSE-150): 10.4 µM
- IC50 ([7]; Homo sapiens, RCM-1): > 16 µM
- IC50 ([8]; Homo sapiens, Daudi): > 16 µM
- IC50 ([9]; Homo sapiens, REH): > 16 µM
- IC50 ([10]; Homo sapiens, NCI-H2170): > 16 µM
- IC50 ([11]; Homo sapiens, RERF-LC-MS): > 16 µM
- IC50 ([12]; Homo sapiens, NALM-6): 9.73 µM
- IC50 ([13]; Homo sapiens, NCI-H2452): > 16 µM
- IC50 ([14]; Homo sapiens, EHEB): > 16 µM
- IC50 ([15]; Homo sapiens, HT1197): > 16 µM
- IC50 ([16]; Homo sapiens, Ca-Ski): > 16 µM
- IC50 ([17]; Homo sapiens, RPMI-6666): > 16 µM
- IC50 ([18]; Homo sapiens, NCI-H727): > 16 µM
- IC50 ([19]; Homo sapiens, EFO-21): > 16 µM
- IC50 ([20]; Homo sapiens, SW-620): 1.93 µM
- IC50 ([21]; Homo sapiens, MKN-7): > 16 µM
- IC50 ([22]; Homo sapiens, NCI-H1703): > 16 µM
- IC50 ([23]; Homo sapiens, HMV-2): 7.51 µM
- IC50 ([24]; Homo sapiens, RD): > 16 µM
- IC50 ([25]; Homo sapiens, SCC-9): > 16 µM
- IC50 ([26]; Homo sapiens, SW13): > 16 µM
- IC50 ([27]; Homo sapiens, SAOS-2): > 16 µM
- IC50 ([28]; Homo sapiens, HCC1954): > 16 µM
- IC50 ([29]; Homo sapiens, IGR-1): 4.23 µM
- IC50 ([30]; Homo sapiens, Detroit 562): 12.8 µM
- IC50 ([31]; Homo sapiens, SCC-4): > 16 µM
- IC50 ([32]; Homo sapiens, DMS-153): > 16 µM
- IC50 ([33]; Homo sapiens, BPH-1): > 16 µM
- IC50 ([34]; Homo sapiens, KP-N-YN): 15.8 µM
- IC50 ([35]; Homo sapiens, NCI-H2405): > 16 µM
- IC50 ([36]; Homo sapiens, SW1417): > 16 µM
- IC50 ([37]; Homo sapiens, MDA-MB-415): > 16 µM
- IC50 ([38]; Homo sapiens, NY): > 16 µM
- IC50 ([39]; Homo sapiens, NCI-H460): 3.4 µM
- IC50 ([40]; Homo sapiens, C3A): > 16 µM
- IC50 ([41]; Homo sapiens, SU-DHL-1): > 16 µM
- IC50 ([42]; Homo sapiens, ACHN): 10.8 µM
- IC50 ([43]; Homo sapiens, LC-1F): > 16 µM
- IC50 ([44]; Homo sapiens, MEL-JUSO): 4.69 µM
- IC50 ([45]; Homo sapiens, CAKI-1): > 16 µM
- IC50 ([46]; Homo sapiens, HOP-92): > 16 µM
- IC50 ([47]; Homo sapiens, NCI-H2030): > 16 µM

Compound: COc1cccc2c1C(=O)c1c(O)c3c(c(O)c1C2=O)C[C@@](O)(C(=O)CO)C[C@@H]3O[C@H]1C[C@H](N)[C@H](O)[C@H](C)O1 [DOXORUBICIN]
- IC50 ([1]; Homo sapiens, BHT-101): 0.396 µM
- IC50 ([2]; Homo sapiens, EB2): 0.0337 µM
- IC50 ([3]; Homo sapiens, L-540): 0.213 µM
- IC50 ([4]; Homo sapiens, OAW-28): 0.179 µM
- IC50 ([5]; Homo sapiens, LB647-SCLC): 0.123 µM
- IC50 ([6]; Homo sapiens, KYSE-150): 0.0278 µM
- IC50 ([7]; Homo sapiens, RCM-1): > 1.02 µM
- IC50 ([8]; Homo sapiens, Daudi): 0.069 µM
- IC50 ([9]; Homo sapiens, REH): 0.00811 µM
- IC50 ([10]; Homo sapiens, NCI-H2170): 0.11 µM
- IC50 ([11]; Homo sapiens, RERF-LC-MS): 0.425 µM
- IC50 ([12]; Homo sapiens, NALM-6): 0.0186 µM
- IC50 ([13]; Homo sapiens, NCI-H2452): > 1.02 µM
- IC50 ([14]; Homo sapiens, EHEB): 0.113 µM
- IC50 ([15]; Homo sapiens, HT1197): 0.213 µM
- IC50 ([16]; Homo sapiens, Ca-Ski): 0.0448 µM
- IC50 ([17]; Homo sapiens, RPMI-6666): 0.066 µM
- IC50 ([18]; Homo sapiens, NCI-H727): 0.0228 µM
- IC50 ([19]; Homo sapiens, EFO-21): 0.362 µM
- IC50 ([20]; Homo sapiens, SW-620): 0.0266 µM
- IC50 ([21]; Homo sapiens, MKN-7): 0.69 µM
- IC50 ([22]; Homo sapiens, NCI-H1703): 0.126 µM
- IC50 ([23]; Homo sapiens, HMV-2): 0.0226 µM
- IC50 ([24]; Homo sapiens, RD): 0.18 µM
- IC50 ([25]; Homo sapiens, SCC-9): > 1.02 µM
- IC50 ([26]; Homo sapiens, SW13): 0.115 µM
- IC50 ([27]; Homo sapiens, SAOS-2): 0.33 µM
- IC50 ([28]; Homo sapiens, HCC1954): 0.541 µM
- IC50 ([29]; Homo sapiens, IGR-1): 0.0339 µM
- IC50 ([30]; Homo sapiens, Detroit 562): 0.231 µM
- IC50 ([31]; Homo sapiens, SCC-4): 0.184 µM
- IC50 ([32]; Homo sapiens, DMS-153): 0.698 µM
- IC50 ([33]; Homo sapiens, BPH-1): 0.0221 µM
- IC50 ([34]; Homo sapiens, KP-N-YN): > 1.02 µM
- IC50 ([35]; Homo sapiens, NCI-H2405): 0.234 µM
- IC50 ([36]; Homo sapiens, SW1417): 0.363 µM
- IC50 ([37]; Homo sapiens, MDA-MB-415): > 1.02 µM
- IC50 ([38]; Homo sapiens, NY): 0.228 µM
- IC50 ([39]; Homo sapiens, NCI-H460): 0.0127 µM
- IC50 ([40]; Homo sapiens, C3A): 0.416 µM
- IC50 ([41]; Homo sapiens, SU-DHL-1): 0.103 µM
- IC50 ([42]; Homo sapiens, ACHN): 0.0493 µM
- IC50 ([43]; Homo sapiens, LC-1F): > 1.02 µM
- IC50 ([44]; Homo sapiens, MEL-JUSO): 0.0145 µM
- IC50 ([45]; Homo sapiens, CAKI-1): 0.375 µM
- IC50 ([46]; Homo sapiens, HOP-92): 0.291 µM
- IC50 ([47]; Homo sapiens, NCI-H2030): 0.0283 µM
